# Target: T1, Recombinant human liver GK1 (GST-GK) (Homo sapiens, UniProt P35557)
# T1 construct: made in house; host or cells: E. coli
# T1 sequence (P35557 1-466 isoform P35557-2): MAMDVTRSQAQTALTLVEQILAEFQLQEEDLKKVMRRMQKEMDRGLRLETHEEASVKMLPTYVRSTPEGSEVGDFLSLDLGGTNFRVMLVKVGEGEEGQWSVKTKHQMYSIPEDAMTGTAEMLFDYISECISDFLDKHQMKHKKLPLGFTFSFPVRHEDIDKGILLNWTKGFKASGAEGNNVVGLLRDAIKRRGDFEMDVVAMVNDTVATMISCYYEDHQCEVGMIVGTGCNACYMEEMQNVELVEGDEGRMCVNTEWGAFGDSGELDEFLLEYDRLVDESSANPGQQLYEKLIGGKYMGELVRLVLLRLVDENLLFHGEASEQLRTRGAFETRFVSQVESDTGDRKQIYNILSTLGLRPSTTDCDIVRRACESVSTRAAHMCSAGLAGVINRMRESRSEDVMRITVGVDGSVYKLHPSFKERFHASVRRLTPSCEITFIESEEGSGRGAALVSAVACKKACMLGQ
# Experiment: In vitro glucokinase activity (G6PDH-coupled NADH assay)
# Assay type: biochemical
# Details: 30° C., 5 mM D-glucose, 10% DMSO
# Method in brief: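 GST-tagged human liver GK1 from E. coli, assayed at 30° C in 25 mM Hepes pH 7.1 with 5 mM D-glucose, 1 mM ATP, 1.8 mM NAD and G6PDH coupling, 10% DMSO final; reaction started with enzyme after 10 min preincubation. NADH formation followed at OD340; SC1.5 is activator concentration giving 50% increase over DMSO control rate.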
row,SC1.5 (concentration of activator that produced a 50% increase in the activity of GK),SMILES
1,13.732 µM,"COC1=CC(=O)N([C@@H](CC2CCCC2)C(=O)Nc2ccn(CCNC(=O)OC(C)(C)C)n2)C1 [Example 7, (2-{3-[(S)-3-Cyclopentyl-2-(4-methoxy-2-oxo-2,5-dihydro-pyrrol-1-yl)-propionylamino]-pyrazol-1-yl}-ethyl)-carbamic acid t-butylester]"
2,0.307 µM,"CC(C)C[C@@H](C(=O)Nc1ccn(C[C@@H](O)C[C@@H](O)CC(=O)OC(C)(C)C)n1)N1CC(Oc2ccccc2Cl)=CC1=O [Example 193, (3R,5S)-6-(3-{(S)-2-[4-(2-chloro-phenoxy)-2-oxo-2,5-dihydro-pyrrol-1-yl]-4-methyl-pentanoylamino}-pyrazol-1-yl)-3,5-dihydroxy-hexanoic acid t-butyl ester]"
3,2.089 µM,"CC(C)C[C@@H](C(=O)Nc1ccn(C)n1)N1CC(Oc2cccc(C(C)(C)O)c2F)=CC1=O [Example 143, (S)-2-{4-[2-Fluoro-3-(1-hydroxy-1-methyl-ethyl)-phenoxy]-2-oxo-2,5-dihydro-pyrrol-1-yl}-4-methyl-pentanoic acid (1-methyl-1H-pyrazol-3-yl)-amide]"
4,1.597 µM,"CNC(=O)NC(=O)C(CC1CCCCC1)N1CC(Oc2cccc(OC)c2Cl)=CC1=O (stereo not shown) [Example 58, 1-{2-[4-(2-Chloro-3-methoxy-phenoxy)-2-oxo-2,5-dihydro-pyrrol-1-yl]-3-cyclohexyl-propionyl}-3-methyl-urea]"
5,1.388 µM,"CC(C)OCCn1ccc(NC(=O)[C@H](CC2CCCC2)N2CC(OC3CCCC3)=CC2=O)n1 [Example 20, (S)-3-Cyclopentyl-N-[1-(2-isopropoxy-ethyl)-1H-pyrazol-3-yl]-2-(4-cyclopentyloxy-2-oxo-2,5-dihydro-pyrrol-1-yl)-propionamide]"
6,0.01 µM,CC1(C)OC[C@@H](Cn2ccc(NC(=O)[C@H](CC3CCCCC3)N3CC(Oc4ccccc4Cl)=CC3=O)n2)O1 [Example 62]
7,6.017 µM,"CC[C@H](C)C[C@H](C(=O)Nc1ccn(C[C@@H](O)CO)n1)N1CC(Oc2ccccc2Cl)=CC1=O (single isomer, unassigned) [Example 250]"
8,1.125 µM,"CC(C)C[C@@H](C(=O)Nc1ccn(C[C@@H](O)CO)n1)N1CC(Oc2cccc(CC(C)(C)O)c2)=CC1=O [Example 238, (S)-2-{4-[3-(2-Hydroxy-2-methyl-propyl)-phenoxy]-2-oxo-2,5-dihydro-pyrrol-1-yl}-4-methyl-pentanoic acid [1-((R)-2,3-dihydroxy-propyl)-1H-pyrazol-3-yl]-amide]"
9,0.07 µM,"COc1cccc(OC2=CC(=O)N([C@@H](CC3CCCCC3)C(=O)Nc3ccn(CC(C)(C)O)n3)C2)c1OC [Example 199, (S)-3-cyclohexyl-2-[4-(2,3-dimethoxy-phenoxy)-2-oxo-2,5-dihydro-pyrrol-1-yl]-N-[1-(2-hydroxy-2-methyl-propyl)-1H-pyrazol-3-yl]-propionamide]"
10,2.59 µM,"CC(C)C[C@@H](C(=O)Nc1cnccn1)N1CC(Oc2cccc(C(C)(C)O)c2F)=CC1=O [Example 247, (S)-2-{4-[2-Fluoro-3-(1-hydroxy-1-methyl-ethyl)-phenoxy]-2-oxo-2,5-dihydro-pyrrol-1-yl}-4-methyl-pentanoic acid pyrazin-2-ylamide]"
11,12.645 µM,"COC1=CC(=O)N([C@@H](CC2CCCC2)C(=O)Nc2ccn(C)n2)C1 [Example 6, (S)-3-Cyclopentyl-2-(4-methoxy-2-oxo-2,5-dihydro-pyrrol-1-yl)-N-(1-methyl-1H-pyrazol-3-yl)-propionamide]"
12,0.055 µM,"O=C(O)c1ccc(NC(=O)[C@H](CC2CCCCC2)N2CC(Oc3c(F)ccc(Cl)c3F)=CC2=O)nc1 [Example 74, 6-{(S)-2-[4-(3-Chloro-2,6-difluoro-phenoxy)-2-oxo-2,5-dihydro-pyrrol-1-yl]-3-cyclohexyl-propionylamino}-nicotinic acid]"
13,0.253 µM,"CC(C)(O)Cn1ccc(NC(=O)[C@H](CC2CCCCC2)N2CC(Oc3ccccc3OCc3ccccc3)=CC2=O)n1 [Example 203, (S)-2-[4-(2-benzyloxy-phenoxy)-2-oxo-2,5-dihydro-pyrrol-1-yl]-3-cyclohexyl-N-[1-(2-hydroxy-2-methyl-propyl)-1H-pyrazol-3-yl]-propionamide]"
14,0.211 µM,"CC(C)C[C@@H](C(=O)Nc1ccn(C[C@@H](O)CO)n1)N1CC(Oc2cccc(Cl)c2Cl)=CC1=O.Cl [Example 80, (S)-2-[4-(2,3-Dichloro-phenoxy)-2-oxo-2,5-dihydro-pyrrol-1-yl]-4-methyl-pentanoic acid [1-((R)-2,3-dihydroxy-propyl)-1H-pyrazol-3-yl]-amide Hydrochloride]"
15,0.097 µM,"COC(=O)c1ccc(NC(=O)[C@H](CC(C)C)N2CC(Oc3c(F)cccc3F)=CC2=O)nc1 [Example 46, 6-{(S)-2-[4-(2,6-difluoro-phenoxy)-2-oxo-2,5-dihydro-pyrrol-1-yl]-4-methyl-pentanoylamino}-nicotinic acid methyl ester]"
16,0.628 µM,"CC(C)C[C@@H](C(=O)Nc1ccn(C[C@@H]2CNC(=O)O2)n1)N1CC(Oc2ccccc2Cl)=CC1=O [Example 172, (S)-2-[4-(2-chloro-phenoxy)-2-oxo-2,5-dihydro-pyrrol-1-yl]-4-methyl-pentanoic acid [1-((S)-2-oxo-oxazolidin-5-ylmethyl)-1H-pyrazol-3-yl]-amide]"
17,0.295 µM,"COc1ccccc1OC1=CC(=O)N([C@@H](CC2CCCO2)C(=O)Nc2ccn(CC(C)(C)O)n2)C1 (stereo partly drawn) [Example 179, (S)-N-[1-(2-hydroxy-2-methyl-propyl)-1H-pyrazol-3-yl]-2-[4-(2-methoxy-phenoxy)-2-oxo-2,5-dihydro-pyrrol-1-yl]-3-(tetrahydro-furan-2-yl)-propionamide]"
18,0.21 µM,"CC(C)C[C@@H](C(=O)Nc1ccn(C[C@@H]2COC(C)(C)O2)n1)N1CC(Oc2cccc(C3CC3)c2F)=CC1=O [Example 146, (S)-2-[4-(3-Cyclopropyl-2-fluoro-phenoxy)-2-oxo-2,5-dihydro-pyrrol-1-yl]-4-methyl-pentanoic acid [1-((R)-2,2-dimethyl-[1,3]dioxolan-4-yl-methyl)-1H-pyrazol-3-yl]-amide]"
19,0.694 µM,"C=CCOC(=O)Cc1nsc(NC(=O)[C@H](CC(C)C)N2CC(Oc3ccccc3Cl)=CC2=O)n1 [Example 111, (5-{(S)-2-[4-(2-Chloro-phenoxy)-2-oxo-2,5-dihydro-pyrrol-1-yl]-4-methyl-pentanoylamino}-[1,2,4]thiadiazol-3-yl)-acetic acid allyl ester]"
20,0.163 µM,"CC(C)C[C@@H](C(=O)Nc1ccn(C[C@@H](O)CO)n1)N1CC(Oc2cccc(Br)c2F)=CC1=O [Example 129, (S)-2-[4-(3-Bromo-2-fluoro-phenoxy)-2-oxo-2,5-dihydro-pyrrol-1-yl]-4-methyl-pentanoic acid [1-((R)-2,3-dihydroxy-propyl)-1H-pyrazol-3-yl]-amide]"
21,1.03 µM,"COCCc1nsc(NC(=O)[C@H](CC(C)C)N2CC(Oc3ccccc3Cl)=CC2=O)n1 [Example 104, (S)-2-[4-(2-Chloro-phenoxy)-2-oxo-2,5-dihydro-pyrrol-1-yl]-4-methyl-pentanoic acid [3-(2-methoxy-ethyl)-[1,2,4]thiadiazol-5-yl]-amide]"
22,6.54 µM,"COC1=CC(=O)N([C@@H](CC2CCCC2)C(=O)Nc2cnccn2)C1 [Example 9, (S)-3-Cyclopentyl-2-(4-methoxy-2-oxo-2,5-dihydro-pyrrol-1-yl)-N-pyrazin-2-yl-propionamide]"
23,0.031 µM,"COc1ccccc1OC1=CC(=O)N([C@@H](CC2CCCCC2)C(=O)Nc2ccn(C[C@H](O)CO)n2)C1 [Example 30, (S)-3-Cyclohexyl-N-[1-((S)-2,3-dihydroxy-propyl)-1H-pyrazol-3-yl]-2-[4-(2-methoxy-phenoxy)-2-oxo-2,5-dihydro-pyrrol-1-yl]-propionamide]"
24,0.056 µM,"CC[C@H](C)C[C@@H](C(=O)Nc1ccn(C[C@@H](O)CO)n1)N1CC(Oc2ccccc2Cl)=CC1=O (single isomer, unassigned) [Example 251]"
25,0.252 µM,"Cc1ccccc1OC1=CC(=O)N([C@@H](CC(C)C)C(=O)Nc2ccn(CC(C)(C)O)n2)C1 [Example 125, (S)-4-Methyl-2-(2-oxo-4-o-tolyloxy-2,5-dihydro-pyrrol-1-yl)-pentanoic acid [1-(2-hydroxy-2-methyl-propyl)-1H-pyrazol-3-yl]-amide]"

# Source: patent US7741327B2 (Hoffmann-La Roche Inc., priority 2008, dated 2010)
